Read-outs that look alike come from different tables or passages of the source.
Assays:
Assay in all cases: Kinase profile (33P ATP filter binding)
Format in all cases: biochemical
[1] = target: T1, Aurora A (Homo sapiens, UniProt O14965); conditions: for remaining activity at 1 µM / remaining activity at 100 µM: read-out: Remaining protein kinase activity
T1 sequence (O14965 1-403): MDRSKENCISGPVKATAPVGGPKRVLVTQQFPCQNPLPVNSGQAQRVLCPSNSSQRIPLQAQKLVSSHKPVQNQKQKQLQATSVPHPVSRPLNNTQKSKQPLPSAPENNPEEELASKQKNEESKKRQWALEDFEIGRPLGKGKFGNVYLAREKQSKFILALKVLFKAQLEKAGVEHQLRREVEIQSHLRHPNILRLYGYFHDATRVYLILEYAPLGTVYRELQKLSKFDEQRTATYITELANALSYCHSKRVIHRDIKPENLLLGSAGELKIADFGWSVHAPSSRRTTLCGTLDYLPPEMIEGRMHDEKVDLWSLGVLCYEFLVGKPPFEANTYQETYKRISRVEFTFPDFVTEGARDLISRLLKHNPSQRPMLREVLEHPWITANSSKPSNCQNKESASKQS

[2] = target: EPH-A4 (Homo sapiens, UniProt P54764); conditions: read-out: Remaining protein kinase activity
[3] = target: T2, IRAK4 (Homo sapiens, UniProt Q9NWZ3)
T2 sequence (Q9NWZ3 1-460): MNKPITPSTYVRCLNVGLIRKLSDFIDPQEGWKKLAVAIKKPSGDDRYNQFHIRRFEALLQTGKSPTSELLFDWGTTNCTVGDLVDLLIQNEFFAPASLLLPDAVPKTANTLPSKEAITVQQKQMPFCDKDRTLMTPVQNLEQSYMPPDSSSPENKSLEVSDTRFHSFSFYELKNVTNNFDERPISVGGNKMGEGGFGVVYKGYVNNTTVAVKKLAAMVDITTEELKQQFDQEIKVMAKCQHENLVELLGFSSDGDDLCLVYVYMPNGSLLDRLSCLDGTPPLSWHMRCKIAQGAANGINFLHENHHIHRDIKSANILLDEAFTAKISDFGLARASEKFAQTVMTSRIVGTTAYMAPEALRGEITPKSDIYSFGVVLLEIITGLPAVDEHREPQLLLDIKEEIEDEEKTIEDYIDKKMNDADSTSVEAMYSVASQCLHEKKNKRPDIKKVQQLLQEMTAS

[4] = target: OSR1 (Homo sapiens, UniProt O95747); conditions: read-out: Remaining protein kinase activity
[5] = target: PLK1 (Homo sapiens, UniProt P53350); conditions: read-out: Remaining protein kinase activity
[6] = target: T3, TTK (Homo sapiens, UniProt P33981); conditions: read-out: Remaining protein kinase activity
T3 sequence (P33981 1-857): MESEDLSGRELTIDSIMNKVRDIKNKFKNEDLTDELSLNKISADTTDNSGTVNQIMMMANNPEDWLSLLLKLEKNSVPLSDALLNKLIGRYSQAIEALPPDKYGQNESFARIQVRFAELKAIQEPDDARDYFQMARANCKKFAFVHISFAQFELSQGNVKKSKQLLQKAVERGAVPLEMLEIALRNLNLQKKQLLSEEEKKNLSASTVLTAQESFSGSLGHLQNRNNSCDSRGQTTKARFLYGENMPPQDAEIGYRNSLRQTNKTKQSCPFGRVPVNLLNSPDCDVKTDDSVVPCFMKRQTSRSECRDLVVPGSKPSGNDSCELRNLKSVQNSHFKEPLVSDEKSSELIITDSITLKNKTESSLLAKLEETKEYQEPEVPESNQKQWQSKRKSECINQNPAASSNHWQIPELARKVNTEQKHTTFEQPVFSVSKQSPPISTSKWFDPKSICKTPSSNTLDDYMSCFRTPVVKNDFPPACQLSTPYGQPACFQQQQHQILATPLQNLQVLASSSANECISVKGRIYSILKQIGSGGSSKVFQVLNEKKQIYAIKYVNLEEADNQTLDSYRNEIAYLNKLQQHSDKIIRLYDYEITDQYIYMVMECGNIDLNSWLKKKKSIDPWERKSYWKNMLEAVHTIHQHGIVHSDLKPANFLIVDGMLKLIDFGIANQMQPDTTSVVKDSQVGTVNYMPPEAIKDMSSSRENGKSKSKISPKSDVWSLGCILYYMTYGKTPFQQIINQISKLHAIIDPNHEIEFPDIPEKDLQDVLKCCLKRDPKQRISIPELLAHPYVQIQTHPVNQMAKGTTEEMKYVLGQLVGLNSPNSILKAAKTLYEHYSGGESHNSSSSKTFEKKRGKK

EPH-A4, sequence (P54764 20-986): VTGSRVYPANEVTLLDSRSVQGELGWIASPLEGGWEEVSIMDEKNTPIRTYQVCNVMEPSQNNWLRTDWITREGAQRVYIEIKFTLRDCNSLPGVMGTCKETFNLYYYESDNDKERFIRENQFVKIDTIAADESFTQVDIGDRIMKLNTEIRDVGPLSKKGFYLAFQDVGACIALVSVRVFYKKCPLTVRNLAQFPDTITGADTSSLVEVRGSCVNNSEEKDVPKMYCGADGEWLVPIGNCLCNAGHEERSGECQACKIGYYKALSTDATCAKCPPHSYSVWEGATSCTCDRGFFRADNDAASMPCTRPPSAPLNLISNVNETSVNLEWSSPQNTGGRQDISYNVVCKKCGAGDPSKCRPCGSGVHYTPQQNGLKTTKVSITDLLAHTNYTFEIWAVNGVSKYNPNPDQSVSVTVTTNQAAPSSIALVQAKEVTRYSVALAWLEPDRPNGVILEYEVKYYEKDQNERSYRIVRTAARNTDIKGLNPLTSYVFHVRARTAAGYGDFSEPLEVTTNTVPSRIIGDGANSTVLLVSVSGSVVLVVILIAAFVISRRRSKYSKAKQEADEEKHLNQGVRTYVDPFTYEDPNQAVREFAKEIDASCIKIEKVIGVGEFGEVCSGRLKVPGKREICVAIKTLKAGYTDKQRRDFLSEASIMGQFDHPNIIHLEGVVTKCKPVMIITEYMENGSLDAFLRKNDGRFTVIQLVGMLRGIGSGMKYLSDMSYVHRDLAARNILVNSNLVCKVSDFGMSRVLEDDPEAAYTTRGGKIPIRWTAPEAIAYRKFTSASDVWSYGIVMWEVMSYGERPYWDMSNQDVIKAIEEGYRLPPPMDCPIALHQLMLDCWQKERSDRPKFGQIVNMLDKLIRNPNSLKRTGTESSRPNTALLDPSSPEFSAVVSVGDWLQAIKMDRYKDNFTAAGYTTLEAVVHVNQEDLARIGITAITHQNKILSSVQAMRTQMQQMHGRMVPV
PLK1, sequence (P53350 whole entry): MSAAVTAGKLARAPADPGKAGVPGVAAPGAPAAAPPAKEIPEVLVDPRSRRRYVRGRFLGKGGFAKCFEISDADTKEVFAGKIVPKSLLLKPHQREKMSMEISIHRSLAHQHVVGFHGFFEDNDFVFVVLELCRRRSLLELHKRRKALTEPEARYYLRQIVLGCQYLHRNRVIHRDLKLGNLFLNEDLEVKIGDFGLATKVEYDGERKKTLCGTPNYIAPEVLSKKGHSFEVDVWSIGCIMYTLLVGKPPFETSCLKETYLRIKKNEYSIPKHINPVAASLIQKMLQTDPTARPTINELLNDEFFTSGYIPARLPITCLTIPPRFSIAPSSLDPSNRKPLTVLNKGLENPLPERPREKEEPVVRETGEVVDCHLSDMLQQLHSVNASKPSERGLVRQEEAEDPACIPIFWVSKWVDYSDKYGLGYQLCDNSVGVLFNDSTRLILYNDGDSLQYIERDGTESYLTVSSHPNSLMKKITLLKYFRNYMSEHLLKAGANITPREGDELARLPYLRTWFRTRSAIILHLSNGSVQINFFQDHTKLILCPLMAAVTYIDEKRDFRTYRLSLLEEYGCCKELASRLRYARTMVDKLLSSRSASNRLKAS
OSR1, sequence (O95747 whole entry): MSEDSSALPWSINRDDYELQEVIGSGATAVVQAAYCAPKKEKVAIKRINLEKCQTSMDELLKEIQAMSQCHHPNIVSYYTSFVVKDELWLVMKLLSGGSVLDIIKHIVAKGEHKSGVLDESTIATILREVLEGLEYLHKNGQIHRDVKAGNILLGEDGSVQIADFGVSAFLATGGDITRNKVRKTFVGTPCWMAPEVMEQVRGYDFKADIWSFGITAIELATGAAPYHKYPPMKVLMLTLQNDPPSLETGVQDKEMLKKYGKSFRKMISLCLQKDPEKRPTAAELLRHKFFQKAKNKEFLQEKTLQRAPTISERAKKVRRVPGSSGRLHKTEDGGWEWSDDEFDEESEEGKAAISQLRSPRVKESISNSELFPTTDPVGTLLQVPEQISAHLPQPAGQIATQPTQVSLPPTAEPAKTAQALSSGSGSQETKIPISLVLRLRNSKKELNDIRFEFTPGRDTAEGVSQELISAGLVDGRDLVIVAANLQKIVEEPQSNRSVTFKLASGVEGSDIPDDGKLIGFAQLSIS

Q: Which remaining activity at 1 µM ([1]; Aurora A, 1 μM) does the source give for `COc1ccc2sc(-c3cncc(N)c3)nc2c1` [compound 1, 5-(5-Methoxybenzo[d]thiazol-2-yl)pyridin-3-amine] here?
A: 132%

Q: What about the remaining activity at 100 µM ([1]; Aurora A, 100 μM) of the same compound?
A: 97%

Q: What about the remaining activity at 1 µM ([2]; EPH-A4, 1 μM) of the same compound?
A: 89%

Q: What about the remaining activity at 100 µM ([2]; EPH-A4, 100 μM) of the same compound?
A: 85%

Q: What about the “Remaining protein kinase activity” value ([3]; 1 μM) of the same compound?
A: 85%

Q: What about the “Remaining protein kinase activity” value ([3]; 100 μM) of the same compound?
A: 18%

Q: And the remaining activity at 1 µM ([4]; OSR1, 1 μM)?
A: 128%

Q: And the remaining activity at 100 µM ([4]; OSR1, 100 μM)?
A: 111%

Q: What about the remaining activity at 1 µM ([5]; PLK1, 1 μM) of the same compound?
A: 99%

Q: And the remaining activity at 100 µM ([5]; PLK1, 100 μM)?
A: 73%

Q: What about the remaining activity at 1 µM ([6]; TTK, 1 μM) of the same compound?
A: 86%

Q: What about the remaining activity at 100 µM ([6]; TTK, 100 μM) of the same compound?
A: 47%

Q: How did the “Effect on Aurora A” value ([1]; in words) turn out when `COc1ccc2sc(-c3cncc(NC(C)=O)c3)nc2c1` [PST-001, N-(5-(5-Methoxybenzo[d]thiazol-2-yl)pyridin-3-yl)acetamide] was run?
A: moderately activated

Q: And the remaining activity at 1 µM [1]?
A: 133%

Q: What about the remaining activity at 100 µM [1] of the same compound?
A: 136%

Q: What about the remaining activity at 1 µM [2] of the same compound?
A: 117%

Q: What about the remaining activity at 100 µM [2] of the same compound?
A: 106%

Q: What about the “Remaining protein kinase activity” value ([3]; 1 μM) of the same compound?
A: 88%

Q: What about the “Remaining protein kinase activity” value ([3]; 100 μM) of the same compound?
A: 32%

Q: What about the remaining activity at 1 µM [4] of the same compound?
A: 120%

Q: What about the remaining activity at 100 µM [4] of the same compound?
A: 136%

Q: What about the remaining activity at 1 µM [5] of the same compound?
A: 112%

Q: What about the remaining activity at 100 µM [5] of the same compound?
A: 115%

Q: What about the remaining activity at 1 µM [6] of the same compound?
A: 88%

Q: What about the remaining activity at 100 µM [6] of the same compound?
A: 69%

Reference: paper PMC8617627, “Novel DYRK1A Inhibitor Rescues Learning and Memory Deficits in a Mouse Model of Down Syndrome” (Pharmaceuticals, 2021)
